Read-outs that look alike come from different tables or passages of the source. Bounds are passed on as bounds.

For one test, the target named is T1, Human BOAT1 (Homo sapiens, UniProt Q695T7).
T1 construct: expressed in transfected cells
T1 sequence (Q695T7 1-634): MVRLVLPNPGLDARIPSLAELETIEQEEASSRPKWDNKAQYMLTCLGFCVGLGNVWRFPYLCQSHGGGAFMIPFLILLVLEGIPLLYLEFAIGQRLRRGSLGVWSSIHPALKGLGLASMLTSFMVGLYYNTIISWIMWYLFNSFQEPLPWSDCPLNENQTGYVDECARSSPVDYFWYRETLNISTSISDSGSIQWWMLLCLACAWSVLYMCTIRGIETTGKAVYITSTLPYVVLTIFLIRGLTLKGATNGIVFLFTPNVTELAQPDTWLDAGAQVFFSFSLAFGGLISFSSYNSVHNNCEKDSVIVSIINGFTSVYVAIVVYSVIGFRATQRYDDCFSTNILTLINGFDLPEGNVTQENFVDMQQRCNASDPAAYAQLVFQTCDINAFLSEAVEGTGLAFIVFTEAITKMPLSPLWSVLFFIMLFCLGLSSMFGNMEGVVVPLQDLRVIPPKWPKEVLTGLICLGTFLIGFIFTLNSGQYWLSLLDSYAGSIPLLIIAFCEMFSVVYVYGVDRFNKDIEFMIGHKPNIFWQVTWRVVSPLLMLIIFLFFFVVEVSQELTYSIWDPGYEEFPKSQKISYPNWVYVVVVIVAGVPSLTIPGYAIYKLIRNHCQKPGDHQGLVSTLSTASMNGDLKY
As to the kind of experiment: hBOAT1 inhibitory test (phenylalanine uptake). Type of test: cell-based. Particulars: Human BOAT1 stable expression CHO cells, phenylalanine 0.25 mM, read-out: hB0AT1 IC50. In short, it runs like this:
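Human BOAT1 stably expressed in CHO cells (75000 cells/well) in HEPES-buffered NaCl/KCl/CaCl2/MgCl2 buffer with 0.01% BSA, compound at 0.5% DMSO, preincubated ≥30 min at ordinary temperature. Uptake of L-phenylalanine plus [3H]-L-phenylalanine (0.25 mM final) read by scintillation proximity; 100–200 min values analysed, non-specific uptake defined with […] reference inhibitor.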

For the next test, the target named is T2, hERG channel (Homo sapiens, UniProt Q12809).
T2 construct: host or cells: CHO cells
Nature of the test: hERG channel inhibitory activity, whole-cell patch clamp (auto-patch clamp system). The format is cell-based. Particulars: read-out: hERG IC50. As for the experimental part: Evaluation of hERG (Human Ether-a-go-go Related Gene) Channel Inhibitory Activity
The hERG channel inhibitory activity of the compound of the present invention was measured using CHO cells (B′ SYS GmbH) forcibly expressing hERG channels involved in human rapidly active delayed rectifier potassium current (IKr) by the whole-cell patch clamp method using an auto-patch clamp system (SyncroPatch384PE).
Cell suspension, extracellular fluid, intracellular fluid, and measurement plate (NPC-384 plate) were placed in the auto-patch clamp system, and hERG current measurements were performed using the whole-cell patch clamp method. The voltage protocol was set to a holding potential of −80 mV, with a depolarizing pulse preceded by −90 mV (100 ms) and followed by −80 mV (100 ms).
The depolarizing pulse was […] (500 ms), and then the hERG peak current value obtained during the ramp phase was measured when the voltage was lowered to −80 mV over 100 ms. The protocol was applied at 5-second intervals for 5 minutes for each concentration.
SyncroPatch software (manufactured by Nanion) was used for data analysis. Four concentrations were applied incrementally for each test substance, and the average hERG Peak current value obtained from the last three stimuli of each applied concentration was used as the evaluation data. The IC50 value was calculated from the inhibition rate of the current at each concentration of each test substance relative to the pre-application value using Hill's equation (Hill equation) using the relevant software.
The same experiments were also performed using the example compounds described in WO 2023/145804 as comparative example compounds 1-4.
Background: The hERG channel carries a current that helps repolarise heart muscle cells.

Where [1] appears, read: [3H]-L-phenylalanine uptake, radioactivity after 100 to 200 min.

T2 sequence (Q12809 whole entry): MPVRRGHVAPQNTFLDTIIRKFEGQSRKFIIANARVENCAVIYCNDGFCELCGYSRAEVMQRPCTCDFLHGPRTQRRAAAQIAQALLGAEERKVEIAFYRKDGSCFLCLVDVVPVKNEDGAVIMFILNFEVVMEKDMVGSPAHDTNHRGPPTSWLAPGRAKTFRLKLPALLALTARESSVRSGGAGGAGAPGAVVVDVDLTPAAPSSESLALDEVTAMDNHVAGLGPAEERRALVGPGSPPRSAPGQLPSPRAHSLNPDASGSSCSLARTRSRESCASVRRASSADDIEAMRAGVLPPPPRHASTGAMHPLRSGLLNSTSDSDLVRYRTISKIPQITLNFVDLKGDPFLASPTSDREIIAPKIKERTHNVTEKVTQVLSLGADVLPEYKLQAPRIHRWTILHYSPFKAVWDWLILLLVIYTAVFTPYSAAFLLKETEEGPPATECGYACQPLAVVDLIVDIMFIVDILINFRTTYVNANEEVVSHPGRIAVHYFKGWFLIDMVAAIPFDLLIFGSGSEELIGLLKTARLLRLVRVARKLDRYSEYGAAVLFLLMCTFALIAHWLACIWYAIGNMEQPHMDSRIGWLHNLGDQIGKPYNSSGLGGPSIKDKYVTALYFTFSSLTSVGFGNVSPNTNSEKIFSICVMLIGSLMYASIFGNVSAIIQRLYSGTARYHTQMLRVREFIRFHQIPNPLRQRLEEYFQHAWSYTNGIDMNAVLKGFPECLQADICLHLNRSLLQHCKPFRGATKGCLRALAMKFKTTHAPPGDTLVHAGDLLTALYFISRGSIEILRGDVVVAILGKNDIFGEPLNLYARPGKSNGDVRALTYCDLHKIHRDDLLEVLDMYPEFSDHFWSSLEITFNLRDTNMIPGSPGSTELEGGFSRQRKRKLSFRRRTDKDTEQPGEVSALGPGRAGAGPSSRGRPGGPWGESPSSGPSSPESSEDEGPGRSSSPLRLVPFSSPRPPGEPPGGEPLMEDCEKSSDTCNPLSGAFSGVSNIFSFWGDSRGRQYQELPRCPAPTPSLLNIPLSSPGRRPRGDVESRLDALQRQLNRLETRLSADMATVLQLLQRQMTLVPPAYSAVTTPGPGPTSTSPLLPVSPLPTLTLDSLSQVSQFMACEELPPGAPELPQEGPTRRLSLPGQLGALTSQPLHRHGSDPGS

Turning to `O=C(O)CCCN1CCN(C(=O)CNC(=O)/C=C/c2ccc(C(F)(F)F)cc2F)C(c2cccc(F)c2)C1` (stereo not shown) [I-239], the IC50 is 302 nM at Human BOAT1 (setting [1]) and over 30000 nM on hERG channel.
On the same counts, the results for `O=C(O)CCCN1CCN(C(=O)CNC(=O)/C=C/c2ccc(C(F)(F)F)cc2F)C(c2ccccc2F)C1` (stereo not shown) [I-240] are 197 nM and over 30000 nM.
On to `O=C(O)CCN1CCN(C(=O)CNC(=O)/C=C/c2ccc(C(F)(F)F)cc2F)C(c2ccccc2)C1` (stereo not shown) [I-241], for which the 50% inhibitory concentration (IC50) on Human BOAT1 (setting [1]) was 161 nM; at hERG channel it was over 30000 nM.
Turning to `O=C(O)CCCCN1CCN(C(=O)CNC(=O)/C=C/c2ccc(C(F)(F)F)cc2F)C(c2ccccc2)C1` (stereo not shown) [I-242], the half-inhibitory concentration (IC50) was 158 nM at Human BOAT1 (setting [1]) and over 30000 nM at hERG channel.
For `O=C(O)CCCN1CCN(C(=O)CNC(=O)/C=C/c2ccc(C(F)(F)F)cc2F)[C@@H](C(F)(F)F)C1` [I-243], in that order: 3700 nM and over 30000 nM.
Consider `O=C(O)CCCN1CCN(C(=O)CNC(=O)/C=C/c2ccc(C(F)(F)F)cc2F)[C@H](C(F)(F)F)C1` [I-244], for which the figures for the IC50 on Human BOAT1 (setting [1]) and at hERG channel were 613 nM and over 30000 nM, respectively.
As for `O=C(/C=C/c1ccc(C(F)(F)F)cc1F)NCC(=O)N1CCN(C[C@H]2C[C@H](C(=O)O)C2)CC1c1ccc(Cl)cc1` (stereo partly shown) [I-248], the IC50 on Human BOAT1 (setting [1]) is 147 nM; at hERG channel, over 30000 nM.
As to `O=C(/C=C/c1ccc(C(F)(F)F)cc1F)NCC(=O)N1CCN(CC23CC(C(=O)O)(C2)C3)CC1c1ccc(Cl)cc1` (stereo not shown) [I-250], the IC50 on Human BOAT1 (setting [1]) was 506 nM; at hERG channel it was over 30000 nM.
As for `O=C(/C=C/c1ccc(C(F)(F)F)cc1F)NCC(=O)N1CCCC(c2cccc(C(=O)O)c2)C1` (stereo not shown) [I-255], the IC50 at Human BOAT1 (phenylalanine uptake) was 766 nM; at hERG channel, over 30000 nM.
On the same counts, the results for `O=C(O)CCCN1CCN(C(=O)CNC(=O)/C=C/c2ccc(C(F)(F)F)cc2F)C(c2ccc(Cl)c(F)c2)C1` (stereo not shown) [I-257] are 108 nM and 29600 nM.
For `C[C@@H]1CN(C(=O)CNC(=O)/C=C/c2ccc(C(F)(F)F)cc2F)[C@@H](c2ccccc2)CN1CCCC(=O)O` [I-261], in that order: 30 nM and over 30000 nM.
On the same counts, the results for `C[C@@H]1CN(C(=O)CNC(=O)/C=C/c2ccc(C(F)(F)F)cc2F)[C@@H](c2ccc(Cl)cc2)CN1CCCC(=O)O` [I-337] are 31 nM and 15500 nM.
As for `C[C@@H]1CN(C(=O)CNC(=O)/C=C/c2ccc(C(F)(F)F)cc2F)[C@@H](c2ccc(F)cc2)CN1CCCC(=O)O` [I-338], the IC50 is 54 nM on Human BOAT1 (phenylalanine uptake) and over 30000 nM at hERG channel.
For `C[C@@H]1CN(C(=O)CNC(=O)/C=C/c2ccc(C(F)(F)F)cc2F)[C@@H](c2cccc(F)c2)CN1CCCC(=O)O` [I-340], in that order: 62 nM and over 30000 nM.
Turning to `O=C(O)CCCN1C[C@H](c2ccccc2)N(C(=O)CNC(=O)/C=C/c2ccc(C(F)(F)F)cc2F)CC12CC2` [I-341], the 50% inhibitory concentration (IC50) on Human BOAT1 (phenylalanine uptake) was 1680 nM; on hERG channel, over 30000 nM.
On the same counts, the results for `CC(C)[C@@H]1CN(C(=O)CNC(=O)/C=C/c2ccc(C(F)(F)F)cc2F)[C@@H](c2ccccc2)CN1CCCC(=O)O` [I-342] are 338 nM and over 30000 nM.
On to `CC[C@@H]1CN(C(=O)CNC(=O)/C=C/c2ccc(C(F)(F)F)cc2F)[C@@H](c2ccccc2)CN1CCCC(=O)O` [I-343], for which the IC50 on Human BOAT1 (phenylalanine uptake) was 91 nM; on hERG channel, over 30000 nM.
For `C[C@@H]1CN(C(=O)CNC(=O)/C=C/c2ccc(C(F)(F)F)cc2F)[C@@H](c2ccc(F)c(F)c2)CN1CCC(=O)O` [I-348], in that order: 45 nM and over 30000 nM.
Regarding `C[C@@H]1CN(C(=O)CNC(=O)/C=C/c2ccc(C(F)(F)F)cc2F)[C@@H](c2ccc(F)c(F)c2)CN1CCCC(=O)O` [I-349], the IC50 on Human BOAT1 (phenylalanine uptake) is 93 nM; on hERG channel, over 30000 nM.
For `C[C@@H]1CN(C(=O)CNC(=O)/C=C/c2ccc(C(F)(F)F)cc2)[C@@H](c2ccc(F)c(F)c2)CN1CCCC(=O)O` [I-350], in that order: 184 nM and over 30000 nM.
On the same counts, the results for `C[C@@H]1[C@H](c2ccccc2)N(C(=O)CNC(=O)/C=C/c2ccc(C(F)(F)F)cc2F)CCN1CCCC(=O)O` [I-353] are 400 nM and over 30000 nM.
In the case of `Cc1ccc([C@H]2CN(CCCC(=O)O)[C@H](C)CN2C(=O)CNC(=O)/C=C/c2ccc(C(F)(F)F)cc2F)cc1` [I-383], the figures for the IC50 at Human BOAT1 (setting [1]) and at hERG channel were 64 nM and 15200 nM, respectively.
For `C[C@@H]1CN(C(=O)CNC(=O)/C=C/c2ccc(C(F)(F)F)cc2F)[C@@H](c2cccc(C3CC3)c2)CN1CCC(=O)O` [I-384], in that order: 31 nM and 15800 nM.
On the same counts, the results for `Cc1cccc([C@H]2CN(CCCC(=O)O)[C@H](C)CN2C(=O)CNC(=O)/C=C/c2ccc(C(F)(F)F)cc2F)c1` [I-385] are 70 nM and 21000 nM.
In the case of `C[C@@H]1CN(C(=O)CNC(=O)/C=C/c2ccc(C(F)(F)F)cc2F)[C@@H](c2cccnc2)CN1CCCC(=O)O` [I-395], the IC50 is 636 nM at Human BOAT1 (phenylalanine uptake) and over 30000 nM at hERG channel.
For `C[C@@H]1CN(C(=O)CNC(=O)/C=C/c2ccc(C(F)(F)F)cc2F)[C@@H](c2ccc(Cl)s2)CN1CCC(=O)O` [I-396], in that order: 71 nM and over 30000 nM.
For `[2H]C([2H])([2H])[C@@H]1CN(C(=O)CNC(=O)/C=C/c2ccc(C(F)(F)F)cc2F)[C@@H](c2ccccc2)CN1CCCC(=O)O` [I-397], the results for the IC50 at Human BOAT1 (phenylalanine uptake) and on hERG channel were 75 nM and over 30000 nM, respectively.
With `C[C@@H]1CN(C(=O)CNC(=O)/C=C/c2ccc(C(F)(F)F)cc2F)[C@@H](c2ccc3ccccc3c2)CN1CCCC(=O)O` [I-398], the IC50 on Human BOAT1 (phenylalanine uptake) stood at 42 nM; at hERG channel, 25600 nM.
On the same counts, the results for `Cc1noc([C@H]2CN(CCCC(=O)O)CCN2C(=O)CNC(=O)/C=C/c2ccc(C(F)(F)F)cc2F)n1` [I-401] are 2900 nM and over 30000 nM.

The IC50 is the midpoint of a concentration-inhibition curve.

These data come from patent US20260001849A1, “NOVEL B0AT1 INHIBITOR” (MITSUBISHI TANABE PHARMA CORPORATION, priority 2023, published 2026).
